Results: PubChem BioAssay (NCI)
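A five-concentration, 48-hour dose response in 96-well plates underlies each endpoint, interpolated linearly between surrounding concentrations. At the TGI there is no net growth.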

Tests used:
Assay in all cases: DTP human tumour cell line panel, 48 h
CAKI-1 renal = system: CAKI-1 renal
EKVX NSCLC = system: EKVX NSCLC
HCC-2998 colon = system: HCC-2998 colon
HOP-62 NSCLC = system: HOP-62 NSCLC
MALME-3M melanoma = system: MALME-3M melanoma
MDA-N = system: MDA-N
MOLT-4 leukemia = system: MOLT-4 leukemia
NCI-H226 lung = system: NCI-H226 lung
NCI/ADR-RES ovarian = system: NCI/ADR-RES ovarian
OVCAR-3 ovarian = system: OVCAR-3 ovarian
OVCAR-5 ovarian = system: OVCAR-5 ovarian
RPMI-8226 leukemia = system: RPMI-8226 leukemia
SK-MEL-5 melanoma = system: SK-MEL-5 melanoma
SN12C renal = system: SN12C renal
SNB-19 CNS = system: SNB-19 CNS
SW-620 colon = system: SW-620 colon

SMILES | TGI (CAKI-1 renal) [µM] | TGI (EKVX NSCLC) [µM] | TGI (HCC-2998 colon) [µM] | TGI (HOP-62 NSCLC) [µM] | TGI (MALME-3M melanoma) [µM] | TGI (MDA-N) [µM] | TGI (MOLT-4 leukemia) [µM] | TGI (NCI-H226 lung) [µM] | TGI (NCI/ADR-RES ovarian) [µM] | TGI (OVCAR-3 ovarian) [µM] | TGI (OVCAR-5 ovarian) [µM] | TGI (RPMI-8226 leukemia) [µM] | TGI (SK-MEL-5 melanoma) [µM] | TGI (SN12C renal) [µM] | TGI (SNB-19 CNS) [µM] | TGI (SW-620 colon) [µM]
COC(=O)c1c(O)ccc2c1C1(Cc3ccccc3C1=O)C(O)O2 (stereo not drawn) | 61.8 | 68.5 | 69.9 | 28.7 | 71.4 | 28.7 | 21.5 | 35.5 | > 100 | 43.9 | 51.7 | 17.3 | > 100 | 86.2 | > 100 | > 100
C#CCOCC12C=CC(O1)C1C(=O)OCC12 (stereo not drawn) | > 100 | > 100 | > 100 | > 100 | > 100 | > 100 | > 100 | > 100 | > 100 | > 100 | > 100 | > 100 | > 100 | > 100 | > 100 | > 100
COc1nc(N)c(N=CC(OC(C)=O)C(OC(C)=O)C(COC(C)=O)OC(C)=O)c(=O)n1C (stereo not drawn) | > 100 | > 100 | > 100 | > 100 | > 100 | > 100 | > 100 | > 100 | > 100 | > 100 | > 100 | > 100 | > 100 | > 100 | > 100 | > 100
CC(C)(CC(O)C#N)/[N+]([O-])=[N+](\[O-])C(C)(C)CC(O)C#N (stereo not drawn) | 30.4 | > 100 | 34.2 | 37.9 | 54.2 | 59.5 | 34.5 | 77 | > 100 | 69.2 | 97.2 | 44.8 | > 100 | 45.3 | > 100 | 34.1
COc1ccc(CSc2ccccc2Cn2cccc2)cc1OC | > 100 | > 100 | > 100 | > 100 | > 100 | > 100 |  | > 100 | > 100 | > 100 | > 100 | > 100 | > 100 | > 100 | > 100 | > 100
COC(=O)c1c(OC(C)=O)ccc2c1c1c(OC(C)=O)c3ccccc3c(OC(C)=O)c1n2Cc1ccccc1 | 27.9 | 10.4 | 5.22 | 25.4 | 22.6 | 41.1 | > 50 | > 50 | 46.6 | 3.52 | 19.8 | 5.4 | 9.47 | > 50 | > 50 | 
COc1cccc(N2C(=O)C3c4[nH]c5ccc(C)cc5c4C4CCC(C(C)(C)C)CC4C3C2=O)c1 (stereo not drawn) | > 10 | > 10 | > 10 | > 10 | > 10 | > 10 | 5.04 | 8.78 | 9.27 | > 10 | 7.81 | > 10 | > 10 | > 10 | > 10 | > 10
CC1(O)OC(=O)C2=C1CCC1C2CCC2(C)C(O)CCC12 (stereo not drawn) | > 100 | > 100 | > 100 | > 100 | > 100 | > 100 |  | > 100 | > 100 | > 100 | > 100 | > 100 | > 100 | > 100 | > 100 | > 100
CN(C)CCCN1c2ccccc2CCc2ccc([N+](=O)[O-])cc21 | > 100 | > 100 | 28.5 | 62.9 | 35.2 | 40.9 | > 100 | 90.4 | 42.1 | > 100 | > 100 | > 100 | 31.4 | 58 | > 100 | > 100
CCC(c1c[nH]c2ccc(Br)cc12)c1c[nH]c2ccc(Br)cc12 | 6.58 | 17.2 | 5.73 | 22.3 | 24.9 | 16 | 4.56 | 44 | 13.3 | 14.2 | 16.6 | 11.3 | 26.8 | 15.4 | 21.4 | 19.1
COC(=O)C1=C(C)N2[C@H](C(=O)O)CO[C@@]2(C)[C@H](C(=O)OC)[C@H]1c1cccc([N+](=O)[O-])c1 | > 100 | > 100 | > 100 | > 100 | > 100 | > 100 | > 100 | > 100 | > 100 | > 100 | > 100 | > 100 | > 100 | > 100 | > 100 | > 100
CC[C@@H](/C=C\CCC(=O)C[C@H](O)CCC=C(C)C)O[Si](C(C)C)(C(C)C)C(C)C | > 100 | > 100 | > 100 | > 100 |  | > 100 | > 100 | > 100 | > 100 | > 100 | > 100 | > 100 | > 100 | > 100 | > 100 | > 100
COc1ccc(N=C2C(=Nc3ccc(OC)cc3)N(c3ccccc3)C(=S)N2N=C=C2Sc3ccccc3N2C)cc1 | > 100 | > 100 | > 100 | > 100 | > 100 | > 100 | > 100 | > 100 | > 100 | > 100 | > 100 | > 100 | > 100 | > 100 | > 100 | > 100
CCN(CC)CCNCc1cc(Cl)cc2c1OCOC2 | > 10 | > 10 | > 10 | > 10 | > 10 | > 10 | > 10 | > 10 | > 10 | > 10 | > 10 | > 10 | > 10 | > 10 | > 10 | > 10
Brc1c(C#CCC2CCCCC2)ccc(C#CCC2CCCCC2)c1Br | > 100 | > 100 | > 100 |  | > 100 | > 100 | > 100 | > 100 | > 100 | > 100 | > 100 | > 100 | > 100 | > 100 | > 100 | > 100
CC1OC(OC2C(OC(=O)[C@@H]3CC(C)(C)C[C@H]4C5=CC[C@@H]6[C@@]7(C)C[C@H](O)[C@H](OC8OC(CO)C(O)C(O)C8O)[C@@](C)(CO)[C@@H]7[C@H](O)C[C@@]6(C)[C@]5(C)CC[C@@]34C)OCC(O)C2O)C(O)C(O)C1O (stereo partly drawn) | > 7.5 | > 7.5 | > 7.5 | > 7.5 | > 7.5 | > 7.5 | > 7.5 | > 7.5 | > 7.5 | > 7.5 | > 7.5 |  | > 7.5 | > 7.5 | > 7.5 | > 7.5
C[C@H]1C=C2[C@@H]3CC(C)(C(=O)O)CC[C@]3(C)CC[C@]2(C)[C@]2(C)CC[C@H]3C(C)(C)[C@@H](OC(=O)c4cccc5c(=O)c6ccccc6[nH]c45)CC[C@]3(C)[C@@H]12 (stereo partly drawn) | > 100 | > 100 | > 100 | > 100 | > 100 | > 100 | > 100 | > 100 | > 100 | > 100 | > 100 | > 100 | > 100 | > 100 | > 100 | > 100
COc1cc([C@@H]2c3cc(O)c(OC)cc3C=C(C(N)=O)[C@H]2C(N)=O)ccc1O | > 100 | > 100 | > 100 | > 100 | > 100 | > 100 | > 100 | > 100 | > 100 | > 100 | > 100 | > 100 | > 100 | > 100 | > 100 | > 100
OC(c1ccc(-c2ccccc2)cc1)C(F)(F)c1nc2ccccc2o1 (stereo not drawn) | 61.2 | > 100 | > 100 | > 73.6 | > 100 | > 100 | > 100 | > 100 | > 100 | > 100 | > 100 | > 100 | > 100 | > 100 | > 100 | > 100
OC1(c2ccccc2)CSC2=Nc3ccccc3C3CCN1N23 (stereo not drawn) | 72.6 | 28.6 | 88.7 | 50 | 81.7 | 27.2 | 80.9 | > 100 | 63.9 | > 100 | 32 |  | 35.9 | 40.1 | 37.4 | 47.1
CCOC(=O)c1ccc(C(=O)C(C(C)=O)C(=O)OC(C)(C)C)[nH]1 (stereo not drawn) | > 100 | > 100 | > 100 | > 100 | > 100 | > 100 | > 100 | > 100 | > 100 | > 100 | > 100 | > 100 | > 100 | > 100 | > 100 | > 100
COc1ccc(-n2cnc3c(NC(CCSC)C(=O)O)ncnc32)cc1 (stereo not drawn) | > 100 | > 100 | > 100 | > 100 |  | > 100 | > 100 | > 100 | > 100 | > 100 | > 100 | > 100 | > 100 | > 100 | > 100 | > 100
CCN(c1cccc(NC(=S)Nc2ccccc2N(CC)c2cc(-c3ccccc3)no2)c1)c1cc(-c2ccccc2)no1 | > 100 | > 100 | > 100 | > 100 | > 100 | > 100 | > 100 | > 100 | > 100 | > 100 | > 100 | > 100 | > 100 | > 100 | > 100 | > 100
Fc1ccccc1C1SCc2nc3cc4ccccc4cc3n21 (stereo not drawn) | > 100 | > 100 | > 100 | > 100 | > 100 | > 100 | > 100 | > 100 | > 100 | > 100 | > 100 | > 100 | > 100 | > 100 | > 100 | > 100
Cc1ccc2nc(NC(=O)/C(Cc3nc4ccc(Cl)cc4[nH]c3=O)=N\NC(C)(C)C)sc2c1 | 89.7 |  | > 100 |  |  | > 100 | > 100 | 91.3 | > 100 | > 100 | > 100 | > 100 |  | > 100 | > 100 | > 100
CCN(CC)Cc1sc2nc3ccccc3n2c1-c1ccc(OC)cc1 | > 100 | 75.1 | > 100 | > 100 | > 100 | 7.02 | > 100 | 71.4 | 90.8 | > 100 | > 100 | 33.1 |  |  | > 100 | > 100
CCOc1cc(NC(C)=O)ccc1C(=O)NN1C(=O)C(Cl)C1c1ccco1 (stereo not drawn) | 30.9 | 36.2 | 29.5 | 35.7 | 24.6 | 36.1 | 29.8 | > 100 | > 100 | 32 | 36.4 | 45.5 | 27.9 | 32.8 | 32.1 | > 100
CC(C)C1=CC23CCC4C(C)(C(=O)O)CCCC4(C)C2CC1C1C(=O)N(c2ccc(C(=O)O)cc2)C(=O)C13 (stereo not drawn) | > 100 | > 100 | > 100 | > 100 | > 100 | > 100 | > 100 | > 100 | > 100 | > 100 |  | > 100 | > 100 | > 100 | > 100 | > 100
